Tests used:
Ts65Dn mice [1] = assay: Modified spontaneous alternation task (T-maze) in Ts65Dn mice (paper Examples 1 and 2); type: in vivo, mouse; settings: 5 to 30 doses, 3 mg/kg in milk orally or 1 mg/kg i.p.
Experimental: (§1) Flumazenil may also be tested for its effects on declarative memory in the novel object recognition test and in a modified spontaneous alternation task. Wild-type and Ts65Dn mice may be administered flumazenil (3 mg/kg in milk via voluntary oral feeding or 1 mg/kg i.p.). The wild-type and Ts65Dn mice are administered from 5 to 30 doses of milk or milk-flumazenil (or saline or flumazenil solution i.p.). The mice are then subjected to two repetitions of novel object recognition testing or three daily T-maze sessions at the tail end of the treatment regimen. […] Comparison of treated and untreated Ts65Dn mice will provide controls for any possible arm bias in the spontaneous alternation task.
as §1, with “Bretazenil may” for “Flumazenil may”, “administered bretazenil” for “administered flumazenil”

Ts65Dn mice [2] = type: in vivo, mouse
Experimental: (§2) A 4-week longitudinal crossover study is carried out following the method outlined by Fernandez et al., supra. Wild-type and Ts65Dn mice (3-4 months of age) are randomly assigned to groups receiving daily i.p. injections of saline or flumazenil (1.0 mg/kg), and are submitted to four weekly repetitions of object recognition testing, in which the animals are serially presented with four different object sets. At the 2-week midpoint of the experimental period, wild-type and Ts65Dn mice that have been receiving saline are randomly segregated into groups that either continue to receive daily saline injections or begin to receive daily injections of flumazenil. Conversely, wild-type and Ts65Dn mice that have been chronically administered flumazenil in the first 2 weeks of testing are switched onto a saline regimen. Alongside saline and flumazenil, bilobalide (i.p. 5.0 mg/kg) may be evaluated as a positive control. Bilobalide is a picrotoxin-like compound that may safely be administered for the whole 4-week experiment.
as §1
as §2, with “bretazenil” for “flumazenil”, “bretazenil.” for “flumazenil.”, “bretazenil,” for “flumazenil,”
as §1, with “Bretazenil may” for “Flumazenil may”, “administered bretazenil” for “administered flumazenil”

WT mice = assay: Novel object recognition assay (Discrimination Index) in WT mice; type: in vivo, mouse
Experimental: (§3) Following baseline determinations and group assignments, WT and Ts65Dn mice received intraperitoneal (i.p.) injections once/day (08:00) for the two-week duration of the drug treatment regimen (FIG. 1). Drugs were dissolved in physiological saline. Two drops of Tween 80 were used to facilitate solution formation for flumazenil. Picrotoxin was initially made up at 50× concentration in 20% ethanol and then diluted down to a […] solution with 0.4% ETOH in saline. Doses of drugs were based on previous behavioral research in mice (1 mg/kg for PTX and 10 mg/kg for flumazenil). Injections were given in a volume of 10 ml/kg. A vehicle control was run along side the treatment groups (0.4% ETOH in saline).
(§4) FIG. 1 graphically depicts the protocol. After habituation to the animal facility, mice were tested for baseline behaviors in the open-field locomotor assay (LMA)(30 min session) and the novel object recognition assay. Primary experimental groups were divided by genotype (Ts65Dn mice and wild-type control littermates). These two groups were further divided into drug treatments (vehicle, PTX and flumazenil) with a targeted n-size of 8 mice/group (24 WT and 24 Ts65Dn mice total). The group assignments were made in a semi-random process due to constraints in animal availability (staggered shipping) and choice of initial treatment groups (e-mail documentation between Bilsky laboratory and Cypress Bioscience on file). Daily morning injections began on Day 1 and went through the morning of Day 14. On Days 7/8 and 14/15 (13:00) mice were tested in the behavioral assay. Mice were kept for an additional two weeks and re-tested on Days 21/22 and 28/29 to assess the duration of the drug treatment effect.
(§5) The novel object recognition task is based on the innate tendency of rodents to differentially explore novel objects over familiar ones. The task is well validated for evaluating rodent memory and the effects of drug treatments on learning/memory performance.
(§6) Mice were trained and tested once per week, each experimental session separated by a one-week interval. Mice were submitted to daily handling sessions, and given an opportunity to habituate to an open field arena (48 cm×48 cm wide×25 cm), where they were exposed to two different objects (complex protocol), during a 5-minute training session. Objects were made from various non-porous materials that differ in shape and color. Mice were unable to climb onto the objects and the objects were generally consistent in height and volume, and were roughly symmetrical on a horizontal plane. Objects were positioned in two corners of the apparatus. To control for odor cues, the open field arena and the objects are thoroughly cleaned with 90% ethanol, dried, and ventilated for a few minutes between mice.
(§7) A 5-minute testing session was conducted 24 h after training. Here, the mice were presented with the object they had explored the previous day, and a new item (the objects being alternatively positioned in one corner or another in a balanced fashion within a given week, and from one week to another). […]

[3] = of the intravenous bioavailability; cited from earlier work
Ts65Dn mice [4] = assay: Novel object recognition assay (Discrimination Index) in Ts65Dn mice, model of Down syndrome; type: in vivo, mouse
Experimental: as §3, §4, §5, §6, §7

CCOC(=O)c1ncn2c1CN(C)C(=O)c1cc(F)ccc1-2 [flumazenil, 8-fluoro-5,6-dihydro-5-methyl-6-oxo-4H-imidazo[1,5-a]benzodiazepine-3-carboxylic acid ethyl ester]
spontaneous alternation (Ts65Dn mice [1]): normal levels of alternation | object recognition performance (Ts65Dn mice [2]; 4-week crossover, flumazenil or bretazenil 1.0 mg/kg i.p. for 2 weeks, bilobalide 5.0 mg/kg i.p. throughout): normalized object recognition performance | discrimination indices in the object recognition task (Ts65Dn mice [2]; 5 to 30 doses, 3 mg/kg in milk orally or 1 mg/kg i.p.): on a par with those of wild-type mice | novel object recognition testing, long term (Ts65Dn mice [2]; up to at least 2 months after treatment, treated for at least about 15 days): long-term improvement | Discrimination Index (DI) (WT mice; Week 2 of drug therapy, versus vehicle): no differences | Discrimination Index (DI) (WT mice; Week 4 (2 weeks post dosing)): slight negative DI | oral bioavailability [3]: approximately 20% | Discrimination Index (DI) (Ts65Dn mice [4]; Week 1 of drug therapy, PTX 1 mg/kg, flumazenil 10 mg/kg i.p.): positive effects | Discrimination Index (DI) (Ts65Dn mice [4]; Week 2 of drug therapy): positive effects | effect in the object recognition assay as compared to vehicle (Ts65Dn mice [4]; flumazenil 10 mg/kg i.p., conclusion): beneficial effect
